Laboratory results taken from PubChem BioAssay (NCI).
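These data come from cells grown in 96-well plates and exposed to compound for 48 hours at five concentrations. The concentration for 50% growth inhibition is given as GI50. Definition used: TGI = concentration required for complete inhibition of growth.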

Columns and labels:
Experiment in all cases: NCI-60 cell line screen, 48 h
[1] = tested on: IGROV1 ovarian
[2] = tested on: LOX IMVI melanoma
[3] = tested on: OVCAR-4 ovarian
[4] = tested on: OVCAR-8 ovarian
[5] = tested on: SF-268 CNS
[6] = tested on: SK-MEL-5 melanoma
[7] = tested on: SN12C renal
[8] = tested on: SNB-75 CNS
[9] = tested on: SR leukemia
[10] = tested on: MCF7 breast

SMILES	TGI [1]	TGI [2]	TGI [3]	TGI [4]	TGI [5]	TGI [6]	TGI [7]	TGI [8]	TGI [9]	TGI [10]	GI50 [1]	GI50 [3]	GI50 [4]	GI50 [8]
C[C@]12C=CC(=O)C=C1CC[C@@H]1[C@@H]2CC[C@@]2(C)[C@H]1CC[C@]2(O)C(N)=O	> 100 µM	> 100 µM	> 100 µM	> 100 µM	> 100 µM	> 100 µM	> 100 µM	> 100 µM	> 100 µM					
Clc1ccc(Nc2nnc(CNc3ccc(-c4nnc(Nc5ccc(Cl)cc5)s4)cc3)s2)cc1	> 100 µM		> 100 µM		> 100 µM	79.3 µM	> 100 µM	> 100 µM		> 100 µM				
O=[N+]([O-])c1ccc(SN=S=NSc2cccc(SN=S=NSc3ccc([N+](=O)[O-])cc3)c2)cc1	> 100 µM	35.5 µM	> 100 µM	53.4 µM	> 100 µM	> 100 µM	29.2 µM		> 100 µM	75 µM				
O=c1[nH]nc(Cc2ccccc2)n1/N=C/c1cccs1		> 100 µM	> 100 µM	> 100 µM	> 100 µM		> 100 µM	> 100 µM		> 100 µM				
CC(=O)Nc1[nH]n(C)c(=O)c1-c1nnc(C)s1	> 100 µM	> 100 µM	> 100 µM	> 100 µM	> 100 µM	> 100 µM	> 100 µM	> 100 µM	> 100 µM					
COc1ccc(Nc2nc3ccccc3n3cccc23)cc1OC	52.3 µM	27.4 µM		29.5 µM	53.3 µM	24.2 µM			37.7 µM	29.6 µM				
CC(C)(C)N=CN1C=Cc2nc3ccccc3cc2C1	> 100 µM	73.8 µM	> 100 µM	> 100 µM	> 100 µM	> 100 µM	> 100 µM	> 100 µM	> 100 µM					
O=C1[C@@H]2C(c3ccc(Br)cc3)=NO[C@@H]2C(=O)N1c1ccc(Cc2ccc(N3C(=O)[C@H]4C(c5ccc(Br)cc5)=NO[C@H]4C3=O)cc2)cc1	> 40 µM		> 40 µM	> 40 µM	> 3.48 µM	> 3.48 µM	> 40 µM	> 40 µM	> 40 µM		> 40 µM	> 40 µM	> 40 µM	> 40 µM
C[C@@H](CC(O)C(O)C(C)(C)O)C1CCC23CC12CCC1[C@@]2(C)CCC(O)C(C)(C)C2CC(OC2OC(CO)C(O)C(O)C2O)[C@]13C (some centres undefined)	> 10 µM	> 10 µM	> 10 µM	> 10 µM	> 10 µM	> 10 µM	> 10 µM	> 10 µM		> 10 µM				
CS(=O)(=O)N1CC(CCl)c2ccc(NO)cc21 (centres undefined)	29 µM	29.4 µM	40.7 µM	27.9 µM	22.5 µM	28.2 µM	32.6 µM	32.3 µM		35.5 µM				
COC(=O)C(=O)C(C(=O)OC)C(=O)C(=O)Nc1c(C)cccc1C (centres undefined)	> 100 µM	> 100 µM	> 100 µM	> 100 µM	> 100 µM	> 100 µM	> 100 µM	> 100 µM	> 100 µM					
Cn1c(=O)c2[nH]c(N=O)nc2n(C)c1=O	> 100 µM	> 100 µM	> 100 µM	> 100 µM	> 100 µM		> 100 µM	> 100 µM		> 100 µM				
